Measurements: patent publication US20110269799A1 (priority 2008, published 2011)
Like-named read-outs stand apart in the source and are kept apart here. Marks after values point to notes of the source that are not given here.

Key:
AF patients [1] = details: SPORTIF III, cited from earlier work
AF patients [2] = details: SPORTIF V, cited from earlier work
AF patients [3] = details: ACTIVE W; cited from earlier work
[4] = tested on: patients with atrial fibrillation at risk of stroke; details: warfarin INR 2.0-3.0
Source text: Median follow-up was 2.0 years and the primary outcome was stroke or systemic embolism.
Patients were recruited from 951 clinical centers in 44 countries. In brief, patients were eligible if they had atrial fibrillation documented on electrocardiogram at screening or within 6 months; and at least one of the following: prior stroke or transient ischemic attack; left ventricular ejection fraction less than 40%; New York Heart Association heart failure symptoms of Class 2 or greater within 6 months; age at least 75 years; or age at least 65 years with diabetes mellitus, hypertension or coronary artery disease.
The time in therapeutic range was calculated by the method of Rosendaal (Rosendaal F R, et al., A method to determine the optimal intensity of oral anticoagulant therapy, Thromb Haemost, 1993, 69:236-239), excluding INRs from the first week and after discontinuations. […] Concomitant use of aspirin (less than 100 mg/day) or other antiplatelet agents was allowed.
Liver function testing was performed monthly during the first year of follow-up.
The primary study outcome was stroke or systemic embolism. The primary safety outcome was major hemorrhage. Secondary outcomes were stroke, systemic embolism and death. Other outcomes were myocardial infarction, pulmonary embolism, transient ischemic attacks, and hospitalizations. The primary net benefit-risk outcome was the composite of stroke, systemic embolism, pulmonary embolism, myocardial infarction, death or major hemorrhage. Stroke was defined as sudden onset of focal neurological deficit consistent with the territory of a major cerebral artery and categorized as ischemic, hemorrhagic or unspecified. Hemorrhagic transformation of ischemic stroke was not considered as hemorrhagic stroke. Intracranial hemorrhage included hemorrhagic stroke and sub-dural or sub-arachnoid hemorrhage. Systemic embolism was an acute vascular occlusion of an extremity or organ documented by imaging, surgery or autopsy. Major bleeding was defined as a reduction in hemoglobin level of at least […] or transfusion of at least 2 units of blood or symptomatic bleeding in a critical area or organ. Life-threatening bleeding was a subset of major bleeding that included fatal bleeding, symptomatic intracranial bleeding, bleeding with hemoglobin decrease of more than […] or requiring transfusion of more than 4 units of blood or requiring inotropic agents or necessitating surgery. All other bleeding was considered minor.
All primary and secondary outcome events were blindly and doubly adjudicated. An international team of adjudicators reviewed documents in local languages after blinding; or documents were translated by a independent group and blinded centrally. All transient ischemic attacks were reviewed to ensure that strokes had not been missed. To detect possible unreported events, symptom questionnaires were regularly administered to patients, and adverse events and hospitalization reports were scrutinized for unreported primary or secondary outcomes.
If maximum of the two p-values was greater than 0.025, the minimum of the two p-values must be less than 0.0125, one-sided, to claim statistical significance. All analyses were based on intention-to-treat.

[5] = tested on: patients who have nonvalvular atrial fibrillation; details: meta-analysis; cited from earlier work
[6] = tested on: cytochrome P-450 drug metabolizing enzymes; assay: Cytochrome P-450 metabolism, induction and inhibition; format: in vitro ADME
[7] = tested on: patients with chronic atrial fibrillation; assay: PETRO phase 2 12-week dose finding study, dabigatran etexilate alone or with aspirin vs. warfarin; format: in vivo, human
Source text: Primary endpoints were bleeding events and changes in D-dimer. […] Minor bleeding was dose related.

[8] = tested on: patients with atrial fibrillation
Method: PETRO-Ex began while the PETRO study was ongoing and investigators were initially kept blinded to patient treatment group until PETRO was completed. Unblinding investigators to patient treatment was possible thereafter.
Data were summarized descriptively; no hypothesis was to be tested. Events were analyzed on the basis of the treatment at onset. Incidences were reported as number of patients with events as well as normalized to 100 patient-years on the respective treatment.
Patients who completed PETRO on 50 mg b.i.d. were switched to 150 mg q.d. upon entry in the PETRO-Ex study (N=93 patients). […] Patients who were down titrated to 50 mg q.d. based on a glomerular filtration rate<50 mL/min during PETRO were excluded from the long-term trial; patients down-titrated in other dose levels remained on the q.d. treatment at that dose.

CC(=O)CC(c1ccccc1)c1c(O)c2ccccc2oc1=O (racemic) [Warfarin, 3-(α-acetonylbenzyl)-4-hydroxycoumarin]
Myocardial Infarction (AF patients [1]): 0.6% (warfarin)
Stroke and systemic embolism (per 100 patient years) (AF patients [1]; ximelagatran 36 mg b.i.d.): 2.3% (warfarin)
Myocardial Infarction (AF patients [2]): 1.4% (warfarin)
Stroke and systemic embolism (per 100 patient years) (AF patients [2]; ximelagatran 36 mg b.i.d.): 1.2% (warfarin)
Myocardial Infarction (AF patients [3]): 0.6% (warfarin)
Stroke and systemic embolism (per 100 patient years) (AF patients [3]): 1.5% (warfarin)
ALT or AST > 3xULN [4]: (2.1) %
ALT or AST > 3xULN with concurrent bilirubin > 2xULN [4]: (0.4) %
Adverse Event: Arthralgia [4]: (5.5) %
Adverse Event: Atrial fibrillation [4]: (5.4) %
Adverse Event: Back pain [4]: (5.5) %
Adverse Event: Chest pain [4]: (5.7) %
Adverse Event: Cough [4]: (5.8) %
Adverse Event: Diarrhea [4]: (5.5) %
Adverse Event: Dizziness [4]: (9.3) %
Adverse Event: Dyspepsia [4]: (1.4) %
Adverse Event: Dyspnoea [4]: (9.2) %
Adverse Event: Fatigue [4]: (5.9) %
Adverse Event: Nasopharyngitis [4]: (5.5) %
Adverse Event: Peripheral edema [4]: (7.6) %
Adverse Event: Upper respiratory tract infection [4]: (5.0) %
Adverse Event: Urinary tract infection [4]: (5.3) %
Major Bleeding, Life threatening, Rate [4]: 1.80 /100 Person Years
Major Bleeding, Other Major, Rate [4]: 1.80 /100 Person Years
Pulmonary embolism, Rate [4]: 0.09 /100 Person Years
Rate of discontinuation at 2.5 years [4]: 19%
Rate of hemorrhagic stroke [4]: 0.38 % per year
Rate of myocardial infarction [4]: 0.54 % per year
Rate of primary outcome, stroke or systemic embolism [4]: 1.70 % per year
Reason for discontinuation: Gastrointestinal bleeding [4]: (0.9) %
Reason for discontinuation: Gastrointestinal disorders (including pain, vomiting and diarrhea) [4]: (0.8) %
Reason for discontinuation: Outcome event [4]: (2.2) %
Reason for discontinuation: Patient decision [4]: (6.2) %
Reason for discontinuation: SAE [4]: (1.6) %
Stroke, systemic embolism, pulmonary embolism, myocardial infarction death or major bleed (net benefit), Rate [4]: 7.99 /100 Person Years
Study Drug Discontinuation at one year [4]: (10) %
Study Drug Discontinuation at two years [4]: (19) %
hepatobiliary disorders (AE) [4]: (2.2) %
hepatobiliary disorders (SAE) [4]: (0.4) %
Study Drug Discontinuation at one year ([4]; listed as warfarin): 10%
Reduction of the risk of stroke compared to control [5]: 64%

CCCCCCOC(=O)NC(=N)c1ccc(NCc2nc3cc(C(=O)N(CCC(=O)OCC)c4ccccn4)ccc3n2C)cc1 [Dabigatran etexilate, 1-methyl-2-[N-[4-(N-n-hexyloxycarbonylamidino)phenyl]aminomethyl]benzimidazol-5-ylcarboxylic acid-N-(2-pyridyl)-N-(2-ethoxycarbonylethyl)amides]
Metabolism by, induction or inhibition of cytochrome P-450 enzymes [6]: not metabolized by and does not induce or inhibit cytochrome P-450 drug metabolizing enzymes
Major bleeding events ([7]; 300 mg b.i.d. plus ASA groups, 12 weeks): 6%
Minor bleeding ([7]; 50, 150, 300 mg b.i.d.): dose related
Elevated transaminases >3x upper limit of normal (ULN) ([7]; all dabigatran etexilate-treated patients (432)): 0.9%
Adverse Events leading to premature discontinuation, rate ([8]; 50 mg b.i.d.): 21.3 % per year
Thromboembolic events ([8]; 50 mg b.i.d.): more than 12 events per 100 years
ALT or AST > 2xULN, rate ([8]; 150 mg b.i.d.): 3.1 % per year
ALT or AST > 3xULN and Bili > 2xULN within 30 days, rate ([8]; 150 mg b.i.d.): 0.4 % per year
ALT or AST > 3xULN, rate ([8]; 150 mg b.i.d.): 1.9 % per year
ALT or AST > 5xULN, rate ([8]; 150 mg b.i.d.): 1.0 % per year
Adverse Events leading to premature discontinuation, rate ([8]; 150 mg b.i.d.): 9.8 % per year
Major Bleeds, of these without aspirin, rate ([8]; 150 mg b.i.d.): 3.2 % per year
Major Bleeds, rate ([8]; 150 mg b.i.d.): 4.2 % per year
Major Bleeds, with aspirin, rate ([8]; 150 mg b.i.d.): 8.7 % per year
Stroke and Systemic Thromboembolism, rate ([8]; 150 mg b.i.d.): 1.0 % per year
ALT or AST > 2xULN, rate ([8]; 150 mg q.d.): 3.4 % per year
Adverse Events leading to premature discontinuation, rate ([8]; 150 mg q.d.): 13.7 % per year
Major Bleeds, of these without aspirin, rate ([8]; 150 mg q.d.): 6.5 % per year
Major Bleeds, rate ([8]; 150 mg q.d.): 5.1 % per year
Thromboembolic events ([8]; 150 mg q.d., per 100 years): about 5 events
ALT or AST > 2xULN, rate ([8]; 300 mg b.i.d.): 4.9 % per year
ALT or AST > 3xULN, rate ([8]; 300 mg b.i.d.): 2.4 % per year
ALT or AST > 5xULN, rate ([8]; 300 mg b.i.d.): 1.2 % per year
Adverse Events leading to premature discontinuation, rate ([8]; 300 mg b.i.d.): 25.6 % per year
Bleeding events ([8]; 300 mg b.i.d.): more than 12 per 100 years
Major Bleeds, of these without aspirin, rate ([8]; 300 mg b.i.d.): 6.3 % per year
Major Bleeds, rate ([8]; 300 mg b.i.d.): 12.2 % per year
Major Bleeds, with aspirin, rate ([8]; 300 mg b.i.d.): 32.7 % per year
Thromboembolic events ([8]; 300 mg b.i.d.): about 1 event per 100 years
ALT or AST > 2xULN, rate ([8]; 300 mg q.d.): 1.5 % per year
ALT or AST > 3xULN and Bili > 2xULN within 30 days, rate ([8]; 300 mg q.d.): 0.5 % per year
ALT or AST > 3xULN, rate ([8]; 300 mg q.d.): 1.5 % per year
ALT or AST > 5xULN, rate ([8]; 300 mg q.d.): 1.5 % per year
Adverse Events leading to premature discontinuation, rate ([8]; 300 mg q.d.): 9.6 % per year
Major Bleeds, of these without aspirin, rate ([8]; 300 mg q.d.): 2.1 % per year
Major Bleeds, rate ([8]; 300 mg q.d.): 2.5 % per year
Major Bleeds, with aspirin, rate ([8]; 300 mg q.d.): 3.6 % per year
Thromboembolic events ([8]; 300 mg q.d., per 100 years): more than 2 events
Major bleeding events (per 100 patient years) ([8]; PETRO-Ex, 150 mg b.i.d., without concomitant aspirin): 3.2%*
LFT abnormalities > 3 xULN (per 100 patient years) ([8]; PETRO-Ex, all doses): 1.7%
ALT or AST > 2xULN, rate ([8]; Total, all doses): 2.9 % per year
ALT or AST > 3xULN and Bili > 2xULN within 30 days, rate ([8]; Total, all doses): 0.4 % per year
ALT or AST > 3xULN, rate ([8]; Total, all doses): 1.7 % per year
ALT or AST > 5xULN, rate ([8]; Total, all doses): 1.1 % per year
Adverse Events leading to premature discontinuation, rate ([8]; Total, all doses): 11.5 % per year
Major Bleeds, of these without aspirin, rate ([8]; Total, all doses): 3.2 % per year
Major Bleeds, rate ([8]; Total, all doses): 4.2 % per year
Major Bleeds, with aspirin, rate ([8]; Total, all doses): 8.5 % per year
